Source: paper PMC11003488 (Journal of Enzyme Inhibition and Medicinal Chemistry, 2023)
Several values for one entry are separate records, joined by “and”; a condition that tells them apart may be missing. Identical values can stand only once.

Experiments:
CCRF-CEM = conditions: NCI Data NSC: 800934 ref 41; cited from earlier work
HL-60(TB) = conditions: NCI Data NSC: 800934 ref 41; cited from earlier work
MOLT-4 = conditions: NCI Data NSC: 800934 ref 41; cited from earlier work
SR = conditions: NCI Data NSC: 800934 ref 41; cited from earlier work
A549/ATCC = conditions: NCI Data NSC: 800934 ref 41; cited from earlier work
EKVX = conditions: NCI Data NSC: 800934 ref 41; cited from earlier work
HOP-62 = conditions: NCI Data NSC: 800934 ref 41; cited from earlier work
NCI-H226 = conditions: NCI Data NSC: 800934 ref 41; cited from earlier work
NCI-H23 = conditions: NCI Data NSC: 800934 ref 41; cited from earlier work
NCI-H322M = conditions: NCI Data NSC: 800934 ref 41; cited from earlier work
NCI-H460 = conditions: NCI Data NSC: 800934 ref 41; cited from earlier work
NCI-H522 = conditions: NCI Data NSC: 800934 ref 41; cited from earlier work
COLO 205 = conditions: NCI Data NSC: 800934 ref 41; cited from earlier work
HCC-2998 = conditions: NCI Data NSC: 800934 ref 41; cited from earlier work
HCT-15 = conditions: NCI Data NSC: 800934 ref 41; cited from earlier work
HT29 = conditions: NCI Data NSC: 800934 ref 41; cited from earlier work
KM12 = conditions: NCI Data NSC: 800934 ref 41; cited from earlier work
SW-620 = conditions: NCI Data NSC: 800934 ref 41; cited from earlier work
SF-268 = conditions: NCI Data NSC: 800934 ref 41; cited from earlier work
SF-295 = conditions: NCI Data NSC: 800934 ref 41; cited from earlier work
SF-539 = conditions: NCI Data NSC: 800934 ref 41; cited from earlier work
SNB-19 = conditions: NCI Data NSC: 800934 ref 41; cited from earlier work
SNB-75 = conditions: NCI Data NSC: 800934 ref 41; cited from earlier work
U251 = conditions: NCI Data NSC: 800934 ref 41; cited from earlier work
LOX IMVI = conditions: NCI Data NSC: 800934 ref 41; cited from earlier work
MALME-3M = conditions: NCI Data NSC: 800934 ref 41; cited from earlier work
M14 = conditions: NCI Data NSC: 800934 ref 41; cited from earlier work
MDA-MB-435 = conditions: NCI Data NSC: 800934 ref 41; cited from earlier work
SK-MEL-2 = conditions: NCI Data NSC: 800934 ref 41; cited from earlier work
SK-MEL-28 = conditions: NCI Data NSC: 800934 ref 41; cited from earlier work
UACC-257 = conditions: NCI Data NSC: 800934 ref 41; cited from earlier work
UACC-62 = conditions: NCI Data NSC: 800934 ref 41; cited from earlier work
IGROV1 = conditions: NCI Data NSC: 800934 ref 41; cited from earlier work
OVCAR-3 = conditions: NCI Data NSC: 800934 ref 41; cited from earlier work
OVCAR-4 = conditions: NCI Data NSC: 800934 ref 41; cited from earlier work
OVCAR-5 = conditions: NCI Data NSC: 800934 ref 41; cited from earlier work
OVCAR-8 = conditions: NCI Data NSC: 800934 ref 41; cited from earlier work
NCI/ADR-RES = conditions: NCI Data NSC: 800934 ref 41; cited from earlier work
SK-OV-3 = conditions: NCI Data NSC: 800934 ref 41; cited from earlier work
786-0 = conditions: NCI Data NSC: 800934 ref 41; cited from earlier work
A498 = conditions: NCI Data NSC: 800934 ref 41; cited from earlier work
ACHN = conditions: NCI Data NSC: 800934 ref 41; cited from earlier work
CAKI-1 = conditions: NCI Data NSC: 800934 ref 41; cited from earlier work
RXF 393 = conditions: NCI Data NSC: 800934 ref 41; cited from earlier work
SN12C = conditions: NCI Data NSC: 800934 ref 41; cited from earlier work
TK-10 = conditions: NCI Data NSC: 800934 ref 41; cited from earlier work
UO-31 = conditions: NCI Data NSC: 800934 ref 41; cited from earlier work
PC-3 = conditions: NCI Data NSC: 800934 ref 41; cited from earlier work
DU-145 = conditions: NCI Data NSC: 800934 ref 41; cited from earlier work
MCF7 = conditions: NCI Data NSC: 800934 ref 41; cited from earlier work
HS 578 T = conditions: NCI Data NSC: 800934 ref 41; cited from earlier work
BT-549 = conditions: NCI Data NSC: 800934 ref 41; cited from earlier work
T-47D = conditions: NCI Data NSC: 800934 ref 41; cited from earlier work
[1] = tested on: NCI 60-cell line panel (full panel); conditions: read-out: Full panel MG-MID GI50, NCI Data NSC: 800934; cited from earlier work
Leukaemia cell lines = conditions: read-out: MG-MID GI50; leukaemia subpanel; NCI Data NSC: 800934; cited from earlier work
NSCLC cell lines = conditions: read-out: MG-MID GI50; NSCLC subpanel; NCI Data NSC: 800934; cited from earlier work
Colon cancer cell lines = conditions: read-out: MG-MID GI50; Colon Cancer subpanel; NCI Data NSC: 800934; cited from earlier work
CNS cancer cell lines = conditions: read-out: MG-MID GI50; CNS Cancer subpanel; NCI Data NSC: 800934; cited from earlier work
Melanoma cell lines = conditions: read-out: MG-MID GI50; Melanoma subpanel; NCI Data NSC: 800934; cited from earlier work
[2] = tested on: Ovarian cancer cell lines; conditions: read-out: MG-MID GI50; Ovarian Cancer subpanel; NCI Data NSC: 800934; cited from earlier work
Renal cancer cell lines = conditions: read-out: MG-MID GI50; Renal Cancer subpanel; NCI Data NSC: 800934; cited from earlier work
[3] = tested on: Prostate cancer cell lines; conditions: read-out: MG-MID GI50; Prostatic Cancer subpanel; NCI Data NSC: 800934; cited from earlier work
Breast cancer cell lines = conditions: read-out: MG-MID GI50; Breast Cancer subpanel; NCI Data NSC: 800934; cited from earlier work
HCT-116 (colon cancer) [4] = experiment: Apoptosis AV/PI assay by flow cytometry; type: cell-based, human; conditions: HCT-116, 24 h, IC50 of compound
HCT-116 (colon cancer) [5] = experiment: Cell cycle analysis by PI flow cytometry; type: cell-based, human; conditions: HCT-116, 24 h, IC50 of compound
Caspase-3 [6] = experiment: Protein level by ELISA assay in HCT-116; type: cell-based, human; conditions: HCT-116, IC50 of compound, 24 h, vs 0.1% DMSO
Bax [7] = experiment: Protein level by ELISA assay in HCT-116; type: cell-based, human; conditions: HCT-116, IC50 of compound, 24 h, vs 0.1% DMSO
Caspase-3 [8] = experiment: Gene expression by RT-qPCR in HCT-116; conditions: HCT-116, 24 h, IC50 of compound; vs 0.1% DMSO; 2^-ΔΔct
Cyt-c = experiment: Gene expression by RT-qPCR in HCT-116; conditions: HCT-116, 24 h, IC50 of compound; vs 0.1% DMSO; 2^-ΔΔct
Bax [9] = experiment: Gene expression by RT-qPCR in HCT-116; conditions: HCT-116, 24 h
Bcl-2 = experiment: Gene expression by RT-qPCR in HCT-116; conditions: HCT-116, 24 h, IC50 of compound; vs 0.1% DMSO; 2^-ΔΔct
TNF-α = experiment: Gene expression by RT-qPCR in HCT-116; conditions: HCT-116, 24 h, IC50 of compound; vs 0.1% DMSO; 2^-ΔΔct

CNC(=O)c1cc(Oc2ccc(NC(=O)Nc3ccc(Cl)c(C(F)(F)F)c3)cc2)ccn1 [Sorafenib]
GI50 (CCRF-CEM): 3.16 µM
GI50 (HL-60(TB)): 0.63 µM
GI50 (MOLT-4): 2.51 µM
GI50 (SR): 1.99 µM
GI50 (A549/ATCC): 3.16 µM
GI50 (EKVX): 3.16 µM
GI50 (HOP-62): 2.51 µM
GI50 (NCI-H226): 1.25 µM
GI50 (NCI-H23): 1.99 µM
GI50 (NCI-H322M): 3.98 µM
GI50 (NCI-H460): 3.16 µM
GI50 (NCI-H522): 1.99 µM
GI50 (COLO 205): 2.51 µM
GI50 (HCC-2998): 3.16 µM
GI50 (HCT-15): 2.51 µM
GI50 (HT29): 2.51 µM
GI50 (KM12): 2.51 µM
GI50 (SW-620): 3.98 µM
GI50 (SF-268): 3.98 µM
GI50 (SF-295): 2.51 µM
GI50 (SF-539): 1.99 µM
GI50 (SNB-19): 5.01 µM
GI50 (SNB-75): 1.99 µM
GI50 (U251): 3.16 µM
GI50 (LOX IMVI): 2.51 µM
GI50 (MALME-3M): 3.16 µM
GI50 (M14): 1.99 µM
GI50 (MDA-MB-435): 1.99 µM
GI50 (SK-MEL-2): 1.25 µM
GI50 (SK-MEL-28): 2.51 µM
GI50 (UACC-257): 1.99 µM
GI50 (UACC-62): 2.51 µM
GI50 (IGROV1): 3.16 µM
GI50 (OVCAR-3): 3.98 µM
GI50 (OVCAR-4): 3.16 µM
GI50 (OVCAR-5): 3.16 µM
GI50 (OVCAR-8): 3.16 µM
GI50 (NCI/ADR-RES): 3.16 µM
GI50 (SK-OV-3): 3.16 µM
GI50 (786-0): 3.98 µM
GI50 (A498): 3.16 µM
GI50 (ACHN): 3.16 µM
GI50 (CAKI-1): 3.16 µM
GI50 (RXF 393): 3.98 µM
GI50 (SN12C): 3.16 µM
GI50 (TK-10): 3.98 µM
GI50 (UO-31): 3.16 µM
GI50 (PC-3): 1.99 µM
GI50 (DU-145): 5.01 µM
GI50 (MCF7): 2.51 µM
GI50 (HS 578 T): 3.16 µM
GI50 (BT-549): 3.16 µM
GI50 (T-47D): 1.99 µM
GI50 [1]: 2.76 µM
GI50 (Leukaemia cell lines): 1.91 µM
GI50 (NSCLC cell lines): 2.53 µM
GI50 (Colon cancer cell lines): 2.68 µM
GI50 (CNS cancer cell lines): 3.1 µM
GI50 (Melanoma cell lines): 2.16 µM
GI50 [2]: 3.27 µM
GI50 (Renal cancer cell lines): 3.46 µM
GI50 [3]: 3.5 µM
GI50 (Breast cancer cell lines): 2.76 µM

COc1cccc2c1C(=O)c1c(O)c3c(c(O)c1C2=O)C[C@@](O)(C(=O)CO)C[C@@H]3O[C@H]1C[C@H](N)[C@H](O)[C@H](C)O1 [Doxorubicin, reference compound]
% Early apoptotic cells (LR) (HCT-116 (colon cancer) [4]): 0.00 ± 0.0%
% Late apoptotic cells (UL) (HCT-116 (colon cancer) [4]): 3.86 ± 0.66%
% Necrotic cells (UR) (HCT-116 (colon cancer) [4]): 96.12 ± 14.1%
% Viable cells (LL) (HCT-116 (colon cancer) [4]): 0.03 ± 0.001%
% G0-G1 (HCT-116 (colon cancer) [5]): 55.35 ± 6.3%
% G2M (HCT-116 (colon cancer) [5]): 15.05 ± 6.7%
% S (HCT-116 (colon cancer) [5]): 18.68 ± 2.2%
% SubG0-G1 (HCT-116 (colon cancer) [5]): 10.75 ± 2.3%
caspase-3 protein level (Caspase-3 [6]): 34.15 fold
Bax protein level (Bax [7]): 1.86 fold
Caspase-3 gene expression fold change (Caspase-3 [8]): 0.75 ± 0.09 fold
Cyt-c gene expression fold change (Cyt-c): 44.32 ± 4.3 fold
Bax gene expression fold change (Bax [9]; IC50 of compound, vs 0.1% DMSO, 2^-ΔΔct): 0.31 ± 0.05 fold
Bax/Bcl-2 ratio (Bax [9]; ratio of gene expression fold changes): 2
Bcl-2 gene expression fold change (Bcl-2): 0.15 ± 0.03 fold
TNF-α gene expression fold change (TNF-α): 2.33 fold and 2.33 ± 0.2 fold
